Source: article PMC4823711, “Allosteric Partial Inhibition of Monomeric Proteases. Sulfated Coumarins Induce Regulation, not just Inhibition, of Thrombin” (Scientific Reports, 2016)
Read-outs that look alike come from different tables or passages of the source.

Tests used:
thrombin mutant K235A = target: T1, thrombin mutant K235A (Homo sapiens, UniProt P00734, K610A); assay: Inhibition of thrombin mutant K235A; format: biochemical; settings: pH 7.4, 25 °C
T1 construct: a group of thrombin mutants containing replacement of either Arg or Lys present in exosite 2 to Ala
Method: (§1) Chromogenic substrate hydrolysis assay was used to measure potency of inhibition, as previously reported. The assay was performed using Flexstation III (Molecular Devices, Sunnyvale, CA) by monitoring substrate hydrolysis at 405 nm. For thrombin and its mutants, 180 μL of buffer (20 mM Tris-HCl, 100 mM NaCl, 2.5 mM CaCl2, 0.1% (polyethylene glycol) PEG 8000, pH 7.4) was added to each well followed by 5 μL of 240 nM thrombin and 10 μL of sulfated coumarin in DMSO to give 0.002 to 250 μM final concentration (or 10 μL of DMSO alone). After incubation for 10 min at 25 °C, 5 μL of 2 mM Spectrozyme TH was added to each well simultaneously and allowed to react for 60 seconds at 25 °C while simultaneously monitoring the reaction to obtain the rate of increase in A405. Identical experimental conditions were used for reactions in the presence of antithrombin, except for 100 nM of antithrombin added prior to the addition of the substrate.

thrombin mutant R97A = target: T2, thrombin mutant R97A (Homo sapiens, UniProt P00734, R456A); assay: Inhibition of thrombin mutant R97A; format: biochemical; settings: pH 7.4, 25 °C
T2 construct: a group of thrombin mutants containing replacement of either Arg or Lys present in exosite 2 to Ala
Method: as §1

thrombin = thrombin (Homo sapiens, UniProt P00734); assay: Thrombin inhibition in the presence of exosite 1 (HirP) and exosite 2 (UFH) ligands; format: biochemical; parameters: 6 nM plasma α-thrombin; purchased Haematologic Technologies (Essex Junction, VT)
Method: Thrombin inhibition by 3g was examined in the presence of either HirP (exosite 1 ligand) or UFH (exosite 2 ligand). 3g was prepared in DMSO (0.010–50 μM) and thrombin (4–8 nM) were incubated at 25 °C with HirP (0–187 nM) or UFH (0–22.8 μM) in buffer (20 mM Tris-HCl, 100 mM NaCl, 2.5 mM CaCl2, 0.1% PEG 8000, pH 7.4). After 10 min, thrombin activity was measured using Spectrozyme TH hydrolysis assay, as described above. The slopes obtained (in triplicate) were fitted using equation 1 to calculate IC50,app, ∆Y, and HS. The IC50,app at each concentration of the competitor was also calculated using the Dixon-Webb relationship (equation 3) from the known affinities (Kcomp) of the competitor.

factor Xa = target: T3, factor Xa (Homo sapiens, UniProt P00742); assay: Chromogenic substrate hydrolysis assay, factor Xa inhibition (Spectrozyme FXa); format: biochemical
T3 construct: antithrombin, factor Xa and factor XIa were from Haematologic Technologies; purchased Haematologic Technologies (Essex Junction, VT); host or cells: human plasma
Method: For factor XIa inhibition studies, 85 μL of buffer (50 mM Tris-HCl, 150 mM NaCl, 0.1% PEG 8000, 0.02% Tween 80, pH 7.4) was added to each well, followed by 7 μL of 15.3 nM enzyme and 3 μL of sulfated coumarin (3.75–500 μM final concentration) and incubated for 10 min at 37 °C. After the incubation period, 5 μL of 6.9 mM S-2366 was added to each well simultaneously and allowed to react for 300 sec at 37 °C. For factor Xa assay, 180 μL of buffer (20 mM Tris-HCl, 100 mM NaCl, 2.5 mM CaCl2, 0.1% PEG 8000, 0.02% Tween 80, pH 7.4) was added to each well followed by 5 μL of 43.5 nM enzyme, 10 μL of sulfated coumarin (0.002–250 μM final concentration). After a 10 min incubation, 5 μL of 5 mM Spectrozyme FXa was added to each well simultaneously and allowed to react for 300 seconds at 37 °C. The slopes generated from each experiment were used to calculate the fractional residual activity (Y) at each concentration of the inhibitor, and analyzed using logistic equation 1, in which YM is the maximum efficacy, Y0 is minimum efficacy and HS is the Hill slope.

[1] = target: T4, wtTH (recombinant wild type thrombin) (Homo sapiens, UniProt P00734); assay: Inhibition of recombinant wild type thrombin; format: biochemical; settings: pH 7.4, 25 °C
T4 construct: the recombinant wild-type thrombin control
Method: as §1

thrombin mutant R126A = target: T5, thrombin mutant R126A (Homo sapiens, UniProt P00734, R486A); assay: Inhibition of thrombin mutant R126A; format: biochemical; settings: pH 7.4, 25 °C
T5 construct: a group of thrombin mutants containing replacement of either Arg or Lys present in exosite 2 to Ala
Method: as §1

[2] = target: T6, fluorescein-labeled (f FPRCK-) thrombin (Homo sapiens, UniProt P00734); assay: Thermodynamic affinity by fluorescence titration; format: binding
T6 construct: fluorescein-labeled (f FPRCK-) human thrombin; purchased Haematologic Technologies (Essex Junction, VT); host or cells: human plasma
Method: Affinity studies were performed in triplicate and conducted using quartz cuvettes. 180 μL of buffer (20 mM Tris-HCl, 100 mM NaCl, 2.5 mM CaCl2, 0.1% PEG 8000, pH 7.4) and 20 μL of 2 μM fluorescein-labeled (f FPRCK-) thrombin were added to the cuvette followed by titration with 1 μL additions of 3g. Fluorescence intensities were monitored by excitation at 490 nm and emission at 525 nm using slit widths of 0.5 mm. The KD of 3g–thrombin complex was calculated using the quadratic binding equation (equation 4) in which ∆F is the change in fluorescence from the formation of the thrombin-ligand complex with each addition of 3g. F0 is the initial fluorescence and ∆FMAX represents the maximum observed change in fluorescence due to thrombin saturation ([Th]0).

thrombin mutant R175A = target: T7, thrombin mutant R175A (Homo sapiens, UniProt P00734, R543A); assay: Inhibition of thrombin mutant R175A; format: biochemical; settings: pH 7.4, 25 °C
T7 construct: a group of thrombin mutants containing replacement of either Arg or Lys present in exosite 2 to Ala
Method: as §1

T3 sequence (P00742 235-488 limits assumed): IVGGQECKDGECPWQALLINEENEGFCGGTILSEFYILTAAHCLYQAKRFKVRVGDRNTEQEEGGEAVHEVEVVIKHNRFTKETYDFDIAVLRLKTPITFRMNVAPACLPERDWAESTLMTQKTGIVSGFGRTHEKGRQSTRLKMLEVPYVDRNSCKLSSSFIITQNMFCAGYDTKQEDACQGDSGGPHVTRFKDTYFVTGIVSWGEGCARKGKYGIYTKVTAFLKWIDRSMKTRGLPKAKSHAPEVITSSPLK
T3 sequence (P00742 41-179 limits assumed): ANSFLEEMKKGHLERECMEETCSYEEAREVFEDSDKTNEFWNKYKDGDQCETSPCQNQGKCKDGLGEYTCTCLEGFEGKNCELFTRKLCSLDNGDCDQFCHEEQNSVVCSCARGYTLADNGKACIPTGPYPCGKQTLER

O=c1oc2cc(OCCCCn3cc(COc4ccc(-c5c(-c6ccccc6)c6cc(Cl)cc(Cl)c6oc5=O)cc4)nn3)ccc2c(-c2ccccc2)c1-c1ccc(OS(=O)(=O)O)cc1 [3g]
HS (thrombin mutant K235A): 1.9 | IC50 (thrombin mutant K235A): 471 ± 80 nM | ΔY (thrombin mutant K235A): 33 ± 3% | HS (thrombin mutant R97A): 2.4 | IC50 (thrombin mutant R97A): 380 ± 70 nM | ΔY (thrombin mutant R97A): 41 ± 4% | IC50 (thrombin; [HirP] 0 nM, Dixon-Webb relationship, read-out: IC50,predicted): 240 nM | HS (thrombin; [HirP] 0 nM, pH 7.4, 25 °C): 3.3 | ΔY (thrombin; [HirP] 0 nM, pH 7.4, 25 °C): 52 ± 2% | IC50 (thrombin; [HirP] 0 nM, pH 7.4, 25 °C, read-out: IC50,app): 220 ± 20 nM | IC50 (thrombin; [HirP] 25 nM, Dixon-Webb relationship, read-out: IC50,predicted): 450 nM | HS (thrombin; [HirP] 25 nM, pH 7.4, 25 °C): 2.4 | ΔY (thrombin; [HirP] 25 nM, pH 7.4, 25 °C): 58 ± 1% | IC50 (thrombin; [HirP] 25 nM, pH 7.4, 25 °C, read-out: IC50,app): 330 ± 20 nM | IC50 (thrombin; [HirP] 187 nM, Dixon-Webb relationship, read-out: IC50,predicted): 670 nM | HS (thrombin; [HirP] 187 nM, pH 7.4, 25 °C): 2.0 | ΔY (thrombin; [HirP] 187 nM, pH 7.4, 25 °C): 59 ± 6% | IC50 (thrombin; [HirP] 187 nM, pH 7.4, 25 °C, read-out: IC50,app): 330 ± 60 nM | IC50 (thrombin; [UFH] 0 μM, Dixon-Webb relationship, read-out: IC50,predicted): 170 nM | HS (thrombin; [UFH] 0 μM, pH 7.4, 25 °C): 1.3 | ΔY (thrombin; [UFH] 0 μM, pH 7.4, 25 °C): 56 ± 3% | IC50 (thrombin; [UFH] 0 μM, pH 7.4, 25 °C, read-out: IC50,app): 170 ± 20 nM | IC50 (thrombin; [UFH] 11.4 μM, Dixon-Webb relationship, read-out: IC50,predicted): 290 nM | HS (thrombin; [UFH] 11.4 μM, pH 7.4, 25 °C): 1.7 | ΔY (thrombin; [UFH] 11.4 μM, pH 7.4, 25 °C): 66 ± 5% | IC50 (thrombin; [UFH] 11.4 μM, pH 7.4, 25 °C, read-out: IC50,app): 290 ± 30 nM | IC50 (thrombin; [UFH] 22.8 μM, Dixon-Webb relationship, read-out: IC50,predicted): 450 nM | HS (thrombin; [UFH] 22.8 μM, pH 7.4, 25 °C): 3.7 | ΔY (thrombin; [UFH] 22.8 μM, pH 7.4, 25 °C): 59 ± 3% | IC50 (thrombin; [UFH] 22.8 μM, pH 7.4, 25 °C, read-out: IC50,app): 580 ± 30 nM | increase of IC50 in the presence of HirP (thrombin; exosite 1 ligand HirP): 50% | selectivity for thrombin in comparison to factor Xa (factor Xa): ~ 800 fold | IC50 (factor Xa; pH 7.4, 37 °C, read-out: IC50 against factor Xa): > 30000 nM | HS [1]: 4.0 | IC50 [1]: 413 ± 50 nM | ΔY [1]: 39 ± 3% | HS (thrombin mutant R126A): 3.2 | IC50 (thrombin mutant R126A): 308 ± 30 nM | ΔY (thrombin mutant R126A): 41 ± 2% | ΔFMAX ([2]; loss in fluorescence at saturation): ~ 28% | Kd ([2]; pH 7.4, λEX 490 nm, λEM 525 nm, quadratic binding equation): 143 ± 14 nM | HS (thrombin mutant R175A): 2.2 | IC50 (thrombin mutant R175A): 409 ± 80 nM | ΔY (thrombin mutant R175A): 42 ± 5%
